Experimental data published in patent US9453051B2, “Cyclosporin derivatives” (priority 2011, dated 2016).

Experiments:
calcineurin = calcineurin (Homo sapiens, UniProt P62937+P63098+Q08209); experiment: Inhibition of the phosphatase activity of calcineurin (scintillation-proximity-assay, in presence of Cyp18);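 also: calcineurin dephosphorylation of a ³³P-labelled RII phosphopeptide, captured on streptavidin-coated wells and read by scintillation counting, with uninhibited enzyme activity taken as 100%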
Experimental: The measurement was carried out by incubation of 10 μMol of the biotinylated phosphopeptide [sequence]pSer-Val-Ala-Ala-Glu (MW=2192.0) (RH-peptide) marked with ^33P in a sample buffer (40 mM Tris-HCl, pH 7.5, 100 mM NaCl, 6 mM MgCl2, 0.5 mM dithiothreitol, 1 mM. CaCl2, 0.1 mg/ml bovine serum albumin) in presence of 50 nM calmodulin and 1.32 nM calcineurin at 30° C. for 20 min in a 96 well micro titer plate (Costar, Bodenheim, Germany). The total volume of the assay/well was 100 μl. After this reaction time a 90 μl aliquot of the reaction mixture was transferred into a scintillation cavity coated with streptavidin and incubated for 20 min at 22° C. After a washing step the RII phosphopeptide-associated ^33P radioactivity was measured in a MicroBeta Top Counter (Wallac) and the enzyme activity was indicated as average value of three measurements±S.D. The uninhibited dephosphorylation activity has been set on 100%.

[1] = target: recombinant human wild type Cyp18 (Cyp18 wt) (Homo sapiens, UniProt P62937); experiment: biochemical
recombinant human wild type Cyp18 (Cyp18 wt), sequence (P62937 whole entry): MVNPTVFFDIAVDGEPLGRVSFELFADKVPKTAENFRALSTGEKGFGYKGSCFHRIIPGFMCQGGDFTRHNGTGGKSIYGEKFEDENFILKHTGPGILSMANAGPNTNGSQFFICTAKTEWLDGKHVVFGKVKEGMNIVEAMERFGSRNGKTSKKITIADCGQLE
Experimental: The determination was performed on a UV/Vis spectrometer at 10° C. cuvette temperature, whereby the device is operated at 390 nm in kinetic-mode (measurement buffer: 35 mM HEPES/NaOH pH 7.8 (AppliChem A1069)). 0.58 nM recombinant human wild type Cyp18 (Cyp18 wt), 2.33 nM bovine serum albumin (BSA) and 1 mg/ml chymotrypsin (Merck) solved in 35 mM HEPES/NaOH pH 7.8 as well as different concentration of each test substance, where appropriate, were in the cuvette. The reaction was started with a stock solution of Suc-Ala-Ala-Pro-Phe-4-nitroanilide (Bachem, 10 mg/ml DMSO) as substrate so that a final substrate concentration of 32 μM resulted. The extinction-time-curves were evaluated after expiry of the fast phase of the reaction i.e. after approximately 60 seconds according to a rate equation of a first-order reaction.

| Structure (SMILES) | IC50 (calcineurin) | IC50 [1] |
| --- | --- | --- |
| CC[C@@H]1NC(=O)[C@H]([C@H](O)[C@H](C)Cc2nc3cc(C(=O)NCCN4CCN(C(=O)CCC(=O)O)CC4)ccc3[nH]2)N(C)C(=O)[C@H](C(C)C)N(C)C(=O)[C@H](CC(C)C)N(C)C(=O)[C@H](CC(C)C)N(C)C(=O)[C@@H](C)NC(=O)[C@H](C)NC(=O)[C@H](CC(C)C)N(C)C(=O)[C@H](C(C)C)NC(=O)[C@H](CC(C)C)N(C)C(=O)CN(C)C1=O [Compound 54] | 7200 nM | 7.1 nM |
| CC[C@@H]1NC(=O)[C@H]([C@H](O)[C@H](C)Cc2nc3cc(C(=O)N[C@@H](CS)C(=O)N[C@@H](C)C(N)=O)ccc3[nH]2)N(C)C(=O)[C@H](C(C)C)N(C)C(=O)[C@H](CC(C)C)N(C)C(=O)[C@H](CC(C)C)N(C)C(=O)[C@@H](C)NC(=O)[C@H](C)NC(=O)[C@H](CC(C)C)N(C)C(=O)[C@H](C(C)C)NC(=O)[C@H](CC(C)C)N(C)C(=O)CN(C)C1=O [Compound 60] |  | ~10 nM |
| CC[C@@H]1NC(=O)[C@H]([C@H](O)[C@H](C)Cc2nc3c(C(=O)O)cccc3n2C)N(C)C(=O)[C@H](C(C)C)N(C)C(=O)[C@H](CC(C)C)N(C)C(=O)[C@H](CC(C)C)N(C)C(=O)[C@@H](C)NC(=O)[C@H](C)NC(=O)[C@H](CC(C)C)N(C)C(=O)[C@H](C(C)C)NC(=O)[C@H](CC(C)C)N(C)C(=O)CN(C)C1=O [Compound 56] | > 10000 nM | > 1000 nM |
| CC[C@@H]1NC(=O)[C@H]([C@H](O)[C@H](C)Cc2nc3cc(C(=O)Oc4ccccc4C(=O)O)ccc3[nH]2)N(C)C(=O)[C@H](C(C)C)N(C)C(=O)[C@H](CC(C)C)N(C)C(=O)[C@H](CC(C)C)N(C)C(=O)[C@@H](C)NC(=O)[C@H](C)NC(=O)[C@H](CC(C)C)N(C)C(=O)[C@H](C(C)C)NC(=O)[C@H](CC(C)C)N(C)C(=O)CN(C)C1=O [Compound 65] | > 10000 nM | 20.2 nM |
| CC[C@@H]1NC(=O)[C@H]([C@H](O)[C@H](C)Cc2nc3cc(C(=O)N4CCCC4C(=O)N4CCC[C@H]4C(=O)N4CCCC4C(=O)N4CCC[C@H]4C(=O)N4CCCC4C(=O)N4CCC[C@H]4C(=O)O)ccc3[nH]2)N(C)C(=O)[C@H](C(C)C)N(C)C(=O)[C@H](CC(C)C)N(C)C(=O)[C@H](CC(C)C)N(C)C(=O)[C@@H](C)NC(=O)[C@H](C)NC(=O)[C@H](CC(C)C)N(C)C(=O)[C@H](C(C)C)NC(=O)[C@H](CC(C)C)N(C)C(=O)CN(C)C1=O (some centres unmarked) [Compound 49] | > 10000 nM | 30.9 nM |
| CC[C@@H]1NC(=O)[C@H]([C@H](O)[C@H](C)CC2=N[C@@H]3CS[C@H](CCCCC(=O)O)[C@@H]3N2)N(C)C(=O)[C@H](C(C)C)N(C)C(=O)[C@H](CC(C)C)N(C)C(=O)[C@H](CC(C)C)N(C)C(=O)[C@@H](C)NC(=O)[C@H](C)NC(=O)[C@H](CC(C)C)N(C)C(=O)[C@H](C(C)C)NC(=O)[C@H](CC(C)C)N(C)C(=O)CN(C)C1=O [Compound 4] | > 10000 nM | 264 nM |
| CC[C@@H]1NC(=O)[C@H]([C@H](O)[C@H](C)Cc2nc3cc(C(=O)N[C@@H](CCC(=O)OCc4ccccc4)C(=O)N[C@@H](CCC(=O)OCc4ccccc4)C(N)=O)ccc3[nH]2)N(C)C(=O)[C@H](C(C)C)N(C)C(=O)[C@H](CC(C)C)N(C)C(=O)[C@H](CC(C)C)N(C)C(=O)[C@@H](C)NC(=O)[C@H](C)NC(=O)[C@H](CC(C)C)N(C)C(=O)[C@H](C(C)C)NC(=O)[C@H](CC(C)C)N(C)C(=O)CN(C)C1=O [Compound 57] |  | 16.9 nM |
| CC[C@@H]1NC(=O)[C@H]([C@H](O)[C@H](C)Cc2nc3cc(S(=O)(=O)O)cc(F)c3[nH]2)N(C)C(=O)[C@H](C(C)C)N(C)C(=O)[C@H](CC(C)C)N(C)C(=O)[C@H](CC(C)C)N(C)C(=O)[C@@H](C)NC(=O)[C@H](C)NC(=O)[C@H](CC(C)C)N(C)C(=O)[C@H](C(C)C)NC(=O)[C@H](CC(C)C)N(C)C(=O)CN(C)C1=O [Compound 48] | > 10000 nM | 8.7 nM |
| CC[C@@H]1NC(=O)[C@H]([C@H](O)[C@H](C)Cc2nc3cccc(C(=O)O)c3n2C)N(C)C(=O)[C@H](C(C)C)N(C)C(=O)[C@H](CC(C)C)N(C)C(=O)[C@H](CC(C)C)N(C)C(=O)[C@@H](C)NC(=O)[C@H](C)NC(=O)[C@H](CC(C)C)N(C)C(=O)[C@H](C(C)C)NC(=O)[C@H](CC(C)C)N(C)C(=O)CN(C)C1=O [Compound 55] | > 10000 nM | 209 nM |
| CC[C@@H]1NC(=O)[C@H]([C@H](O)[C@H](C)Cc2nc3cc(C(=O)N[C@@H](CCC(=O)O)C(=O)N[C@@H](CCC(=O)O)C(N)=O)ccc3[nH]2)N(C)C(=O)[C@H](C(C)C)N(C)C(=O)[C@H](CC(C)C)N(C)C(=O)[C@H](CC(C)C)N(C)C(=O)[C@@H](C)NC(=O)[C@H](C)NC(=O)[C@H](CC(C)C)N(C)C(=O)[C@H](C(C)C)NC(=O)[C@H](CC(C)C)N(C)C(=O)CN(C)C1=O [Compound 63] |  | 5.1 nM |
| CC[C@@H]1NC(=O)[C@H]([C@H](O)[C@H](C)Cc2nc3cc(C(=O)NCCN(C)C)ccc3[nH]2)N(C)C(=O)[C@H](C(C)C)N(C)C(=O)[C@H](CC(C)C)N(C)C(=O)[C@H](CC(C)C)N(C)C(=O)[C@@H](C)NC(=O)[C@H](C)NC(=O)[C@H](CC(C)C)N(C)C(=O)[C@H](C(C)C)NC(=O)[C@H](CC(C)C)N(C)C(=O)CN(C)C1=O [Compound 52] | > 10000 nM | 8 nM |
| CC[C@@H]1NC(=O)[C@H]([C@H](O)[C@H](C)Cc2nc3nc(S)nc(S)c3[nH]2)N(C)C(=O)[C@H](C(C)C)N(C)C(=O)[C@H](CC(C)C)N(C)C(=O)[C@H](CC(C)C)N(C)C(=O)[C@@H](C)NC(=O)[C@H](C)NC(=O)[C@H](CC(C)C)N(C)C(=O)[C@H](C(C)C)NC(=O)[C@H](CC(C)C)N(C)C(=O)CN(C)C1=O [Compound 16] | 7500 nM | 15.1 nM |
| CC[C@@H]1NC(=O)[C@H]([C@H](O)[C@H](C)Cc2nc3cc(C(=O)N[C@@H](CS)C(=O)N[C@@H](CS)C(N)=O)ccc3[nH]2)N(C)C(=O)[C@H](C(C)C)N(C)C(=O)[C@H](CC(C)C)N(C)C(=O)[C@H](CC(C)C)N(C)C(=O)[C@@H](C)NC(=O)[C@H](C)NC(=O)[C@H](CC(C)C)N(C)C(=O)[C@H](C(C)C)NC(=O)[C@H](CC(C)C)N(C)C(=O)CN(C)C1=O [Compound 61] |  | ~10 nM |
| CC[C@@H]1NC(=O)[C@H]([C@H](O)[C@H](C)Cc2nc3cc(C(=O)NCCC(=O)NCCC(=O)NCCC(=O)NCCC(=O)NCCC(=O)NCCC(=O)O)ccc3[nH]2)N(C)C(=O)[C@H](C(C)C)N(C)C(=O)[C@H](CC(C)C)N(C)C(=O)[C@H](CC(C)C)N(C)C(=O)[C@@H](C)NC(=O)[C@H](C)NC(=O)[C@H](CC(C)C)N(C)C(=O)[C@H](C(C)C)NC(=O)[C@H](CC(C)C)N(C)C(=O)CN(C)C1=O [Compound 51] | > 10000 nM | 7.3 nM |
| CC[C@@H]1NC(=O)[C@H]([C@H](O)[C@H](C)Cc2nc3cc(C(=O)NCCN4CCOCC4)ccc3[nH]2)N(C)C(=O)[C@H](C(C)C)N(C)C(=O)[C@H](CC(C)C)N(C)C(=O)[C@H](CC(C)C)N(C)C(=O)[C@@H](C)NC(=O)[C@H](C)NC(=O)[C@H](CC(C)C)N(C)C(=O)[C@H](C(C)C)NC(=O)[C@H](CC(C)C)N(C)C(=O)CN(C)C1=O [Compound 53] | 4200 nM | 12.7 nM |
| CC[C@@H]1NC(=O)[C@H]([C@H](O)[C@H](C)Cc2nc3cc(C(=O)NCCOCCOCCNC(=O)CCC(=O)O)ccc3[nH]2)N(C)C(=O)[C@H](C(C)C)N(C)C(=O)[C@H](CC(C)C)N(C)C(=O)[C@H](CC(C)C)N(C)C(=O)[C@@H](C)NC(=O)[C@H](C)NC(=O)[C@H](CC(C)C)N(C)C(=O)[C@H](C(C)C)NC(=O)[C@H](CC(C)C)N(C)C(=O)CN(C)C1=O [Compound 68] | > 10000 nM | 8.5 nM |
| CC[C@@H]1NC(=O)[C@H]([C@H](O)[C@H](C)Cc2nc3cc(C(=O)N[C@@H](CO)C(=O)N[C@@H](CCC(=O)O)C(N)=O)ccc3[nH]2)N(C)C(=O)[C@H](C(C)C)N(C)C(=O)[C@H](CC(C)C)N(C)C(=O)[C@H](CC(C)C)N(C)C(=O)[C@@H](C)NC(=O)[C@H](C)NC(=O)[C@H](CC(C)C)N(C)C(=O)[C@H](C(C)C)NC(=O)[C@H](CC(C)C)N(C)C(=O)CN(C)C1=O [Compound 62] |  | 4.4 nM |
| CC[C@@H]1NC(=O)[C@H]([C@H](O)[C@H](C)Cc2nc3cc(C(=O)NCCN4CCNCC4)ccc3[nH]2)N(C)C(=O)[C@H](C(C)C)N(C)C(=O)[C@H](CC(C)C)N(C)C(=O)[C@H](CC(C)C)N(C)C(=O)[C@@H](C)NC(=O)[C@H](C)NC(=O)[C@H](CC(C)C)N(C)C(=O)[C@H](C(C)C)NC(=O)[C@H](CC(C)C)N(C)C(=O)CN(C)C1=O [Compound 64] |  | 17.2 nM |
| CC[C@@H]1NC(=O)[C@H]([C@H](O)[C@H](C)Cc2nc3cc(C(=O)O)ccc3o2)N(C)C(=O)[C@H](C(C)C)N(C)C(=O)[C@H](CC(C)C)N(C)C(=O)[C@H](CC(C)C)N(C)C(=O)[C@@H](C)NC(=O)[C@H](C)NC(=O)[C@H](CC(C)C)N(C)C(=O)[C@H](C(C)C)NC(=O)[C@H](CC(C)C)N(C)C(=O)CN(C)C1=O [Compound 6] |  | 700 nM |
| CC[C@@H]1NC(=O)[C@H]([C@H](O)[C@H](C)Cc2nc3cc(/C=C/C(=O)OC(C)(C)C)ccc3[nH]2)N(C)C(=O)[C@H](C(C)C)N(C)C(=O)[C@H](CC(C)C)N(C)C(=O)[C@H](CC(C)C)N(C)C(=O)[C@@H](C)NC(=O)[C@H](C)NC(=O)[C@H](CC(C)C)N(C)C(=O)[C@H](C(C)C)NC(=O)[C@H](CC(C)C)N(C)C(=O)CN(C)C1=O [Compound 14] | 3200 nM | 36.4 nM |
| CC[C@@H]1NC(=O)[C@H]([C@H](O)[C@H](C)Cc2nc3cc(C(=O)NCCOCCOCCNC(=O)[C@@H]4C[C@H](C(=O)O)C[C@H](C(=O)O)C4)ccc3[nH]2)N(C)C(=O)[C@H](C(C)C)N(C)C(=O)[C@H](CC(C)C)N(C)C(=O)[C@H](CC(C)C)N(C)C(=O)[C@@H](C)NC(=O)[C@H](C)NC(=O)[C@H](CC(C)C)N(C)C(=O)[C@H](C(C)C)NC(=O)[C@H](CC(C)C)N(C)C(=O)CN(C)C1=O [Compound 67] | > 10000 nM | 8.4 nM |
